In test [1] the target is T1, SMARCA4 (Homo sapiens, UniProt P51532).
T1 construct: SMARCA4-HiBiT knock-in Hela monoclonal cell (CS3023226); host or cells: HeLa monoclonal cells with heterozygous HiBiT knock-in at the endogenous SMARCA4 locus
The test is described as follows: SMARCA4 HiBiT degradation assay in HeLa cells. It counts as cell-based. The conditions noted are these: 18 hours, highest concentration 10 μM. As to the method:
(§1) SMARCA2 HiBiT and SMARCA4 HiBiT Degradation Assay
HiBiT peptide knock-in of SMARCA2 in LgBiT expressing HEK293T cells was performed by CRISPR-mediated tagging system as described Promega. […] SMARCA2-HiBiT knock-in Hela monoclonal cell (CS302366) and SMARCA4-HiBiT knock-in Hela monoclonal cell (CS3023226) were purchased from Promega.
(§2) SMARCA2 HiBiT and SMARCA4 HiBiT Degradation Assay in HeLa Cells
Remove appropriate volume of resuspended cells from culture flask to accommodate 2500 cells/well @ 20 μL/well. […] Spin down at 1000 rpm for 5 min using tabletop centrifuge (SPINCHRON 15, Beckman).
Dispense test compounds onto plates using digital liquid dispenser (D300E, Tecan). Incubate plates in humidified tissue culture incubator @37° C. for 18 hours. […] Raw data files and compound information reports are swept into centralized data lake and deconvoluted using automated scripts designed by TetraScience, Inc. Data analysis, curve-fitting and reporting done in Dotmatics Informatics Suite using Screening Ultra module.
A general note: With HiBiT, luminescence reflects the tagged protein that the partner subunit can reach.

For test [2], the target named is T2, SMARCA2 (Homo sapiens, UniProt P51531).
T2 construct: SMARCA2-HiBiT knock-in Hela monoclonal cell (CS302366); host or cells: HeLa monoclonal cells with heterozygous HiBiT knock-in at the endogenous SMARCA2 locus
The test is described as follows: SMARCA2 HiBiT degradation assay in HeLa cells. It counts as cell-based. The conditions noted are these: 18 hours, highest concentration 10 μM. As to the method:
as §1
HiBiT peptide knock-in of SMARCA2 in LgBiT expressing HEK293T cells was performed by CRISPR-mediated tagging system as described Promega. The homozygous HiBiT knock-in on c-terminus SMARCA2 was confirmed by sanger sequence. SMARCA2-HiBiT knock-in Hela monoclonal cell (CS302366) and SMARCA4-HiBiT knock-in Hela monoclonal cell (CS3023226) were purchased from Promega. The heterozygous HiBiT-knock-in was confirmed by sanger sequence in both SMARCA2-HiBiT and SMARCA4-HiBiT monoclonal cells.
as §2
Dispense 10 ul aliquot of prepared Hela-SMARCA2-HiBiT or Hela-SMARCA4-HiBiT cells (1:1 ratio of cells:Trypan Blue (#1450013, Bio-Rad)) onto cell counting slide (#145-0011, Bio-Rad) and obtain cell density and cell viability using cell counter (TC20, Bio-Rad). Remove appropriate volume of resuspended cells from culture flask to accommodate 2500 cells/well @ 20 μL/well. Transfer Hela-HiBiT cells to 50 mL conical (#430290, Corning). Spin down at 1000 rpm for 5 min using tabletop centrifuge (SPINCHRON 15, Beckman). Discard supernatant and resuspend cell pellet in modified EMEM (#30-2003, ATCC) cell culture media containing 10% FBS (F2422-500ML, Sigma), and 1× Penicillin/Streptomycin ([…]) (30-002-CI, Corning) to a cell density of 125,000 cells/mL. Dispense 20 μLof resuspended Hela-HiBit cells per well in 384-well TC treated plate (#12-565-343, Thermo Scientific) using standard cassette (#50950372, Thermo Scientific) on Multidrop Combi (#5840310, Thermo Scientific) inside laminar flow cabinet.
Compounds were dissolved in DMSO to make 10 mM stock and 3-fold series dilutions were further conducted keeping the highest concentration 10 μM. Dispense test compounds onto plates using digital liquid dispenser (D300E, Tecan). Incubate plates in humidified tissue culture incubator @37° C. for 18 hours. Add 20 μL of prepared Nano-Glo® HiBiT Lytic detection buffer (N3050, Promega) to each well of 384-well plate using small tube cassette (#24073295, Thermo Scientific) on Multidrop Combi, incubate @ RT for 30-60 min. Read plates on microplate reader (Envision 2105, PerkinElmer) using 384 well Ultra-Sensitive luminescence mode. Raw data files and compound information reports are swept into centralized data lake and deconvoluted using automated scripts designed by TetraScience, Inc. Data analysis, curve-fitting and reporting done in Dotmatics Informatics Suite using Screening Ultra module.

T1 sequence (P51532 whole entry): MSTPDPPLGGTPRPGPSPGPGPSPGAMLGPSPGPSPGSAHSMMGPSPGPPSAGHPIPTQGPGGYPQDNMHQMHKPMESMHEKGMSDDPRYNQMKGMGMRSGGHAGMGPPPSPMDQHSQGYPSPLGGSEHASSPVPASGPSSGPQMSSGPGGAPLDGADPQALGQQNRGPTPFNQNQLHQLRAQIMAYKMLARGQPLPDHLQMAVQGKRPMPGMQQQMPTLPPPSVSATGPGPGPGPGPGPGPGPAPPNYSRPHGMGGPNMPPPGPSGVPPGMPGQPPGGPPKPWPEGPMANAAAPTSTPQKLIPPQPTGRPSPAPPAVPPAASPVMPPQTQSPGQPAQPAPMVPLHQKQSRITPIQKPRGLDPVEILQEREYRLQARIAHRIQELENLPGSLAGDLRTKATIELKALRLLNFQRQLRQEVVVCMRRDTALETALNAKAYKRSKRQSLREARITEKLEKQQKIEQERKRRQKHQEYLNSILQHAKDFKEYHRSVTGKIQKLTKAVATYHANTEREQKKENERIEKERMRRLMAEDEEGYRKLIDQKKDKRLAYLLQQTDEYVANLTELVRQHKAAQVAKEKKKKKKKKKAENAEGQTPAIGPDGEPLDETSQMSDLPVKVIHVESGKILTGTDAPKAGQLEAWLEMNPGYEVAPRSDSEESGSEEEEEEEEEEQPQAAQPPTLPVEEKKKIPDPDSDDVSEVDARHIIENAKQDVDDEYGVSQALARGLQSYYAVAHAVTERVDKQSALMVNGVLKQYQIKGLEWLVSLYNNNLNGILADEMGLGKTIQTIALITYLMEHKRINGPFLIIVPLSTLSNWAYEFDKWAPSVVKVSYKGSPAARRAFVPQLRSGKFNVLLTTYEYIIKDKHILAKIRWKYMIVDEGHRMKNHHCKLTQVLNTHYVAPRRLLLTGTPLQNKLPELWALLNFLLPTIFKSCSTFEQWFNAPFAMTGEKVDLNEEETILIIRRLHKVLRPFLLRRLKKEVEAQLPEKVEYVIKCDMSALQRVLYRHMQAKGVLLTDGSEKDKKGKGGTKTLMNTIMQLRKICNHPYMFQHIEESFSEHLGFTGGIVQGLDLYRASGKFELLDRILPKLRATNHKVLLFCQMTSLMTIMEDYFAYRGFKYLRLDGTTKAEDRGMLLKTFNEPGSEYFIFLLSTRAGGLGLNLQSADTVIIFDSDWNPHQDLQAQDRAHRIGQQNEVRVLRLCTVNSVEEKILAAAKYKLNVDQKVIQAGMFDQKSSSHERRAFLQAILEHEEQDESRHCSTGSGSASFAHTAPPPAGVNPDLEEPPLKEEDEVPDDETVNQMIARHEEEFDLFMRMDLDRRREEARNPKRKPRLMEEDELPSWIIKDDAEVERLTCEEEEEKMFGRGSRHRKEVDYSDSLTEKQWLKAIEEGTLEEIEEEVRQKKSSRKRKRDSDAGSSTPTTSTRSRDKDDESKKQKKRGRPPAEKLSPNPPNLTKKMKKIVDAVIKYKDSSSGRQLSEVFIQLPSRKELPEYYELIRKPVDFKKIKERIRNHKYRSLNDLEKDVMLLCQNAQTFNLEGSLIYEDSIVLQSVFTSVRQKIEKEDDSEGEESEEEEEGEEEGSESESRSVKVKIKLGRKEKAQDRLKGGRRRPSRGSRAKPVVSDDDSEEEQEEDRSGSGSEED
T2 sequence (P51531 whole entry): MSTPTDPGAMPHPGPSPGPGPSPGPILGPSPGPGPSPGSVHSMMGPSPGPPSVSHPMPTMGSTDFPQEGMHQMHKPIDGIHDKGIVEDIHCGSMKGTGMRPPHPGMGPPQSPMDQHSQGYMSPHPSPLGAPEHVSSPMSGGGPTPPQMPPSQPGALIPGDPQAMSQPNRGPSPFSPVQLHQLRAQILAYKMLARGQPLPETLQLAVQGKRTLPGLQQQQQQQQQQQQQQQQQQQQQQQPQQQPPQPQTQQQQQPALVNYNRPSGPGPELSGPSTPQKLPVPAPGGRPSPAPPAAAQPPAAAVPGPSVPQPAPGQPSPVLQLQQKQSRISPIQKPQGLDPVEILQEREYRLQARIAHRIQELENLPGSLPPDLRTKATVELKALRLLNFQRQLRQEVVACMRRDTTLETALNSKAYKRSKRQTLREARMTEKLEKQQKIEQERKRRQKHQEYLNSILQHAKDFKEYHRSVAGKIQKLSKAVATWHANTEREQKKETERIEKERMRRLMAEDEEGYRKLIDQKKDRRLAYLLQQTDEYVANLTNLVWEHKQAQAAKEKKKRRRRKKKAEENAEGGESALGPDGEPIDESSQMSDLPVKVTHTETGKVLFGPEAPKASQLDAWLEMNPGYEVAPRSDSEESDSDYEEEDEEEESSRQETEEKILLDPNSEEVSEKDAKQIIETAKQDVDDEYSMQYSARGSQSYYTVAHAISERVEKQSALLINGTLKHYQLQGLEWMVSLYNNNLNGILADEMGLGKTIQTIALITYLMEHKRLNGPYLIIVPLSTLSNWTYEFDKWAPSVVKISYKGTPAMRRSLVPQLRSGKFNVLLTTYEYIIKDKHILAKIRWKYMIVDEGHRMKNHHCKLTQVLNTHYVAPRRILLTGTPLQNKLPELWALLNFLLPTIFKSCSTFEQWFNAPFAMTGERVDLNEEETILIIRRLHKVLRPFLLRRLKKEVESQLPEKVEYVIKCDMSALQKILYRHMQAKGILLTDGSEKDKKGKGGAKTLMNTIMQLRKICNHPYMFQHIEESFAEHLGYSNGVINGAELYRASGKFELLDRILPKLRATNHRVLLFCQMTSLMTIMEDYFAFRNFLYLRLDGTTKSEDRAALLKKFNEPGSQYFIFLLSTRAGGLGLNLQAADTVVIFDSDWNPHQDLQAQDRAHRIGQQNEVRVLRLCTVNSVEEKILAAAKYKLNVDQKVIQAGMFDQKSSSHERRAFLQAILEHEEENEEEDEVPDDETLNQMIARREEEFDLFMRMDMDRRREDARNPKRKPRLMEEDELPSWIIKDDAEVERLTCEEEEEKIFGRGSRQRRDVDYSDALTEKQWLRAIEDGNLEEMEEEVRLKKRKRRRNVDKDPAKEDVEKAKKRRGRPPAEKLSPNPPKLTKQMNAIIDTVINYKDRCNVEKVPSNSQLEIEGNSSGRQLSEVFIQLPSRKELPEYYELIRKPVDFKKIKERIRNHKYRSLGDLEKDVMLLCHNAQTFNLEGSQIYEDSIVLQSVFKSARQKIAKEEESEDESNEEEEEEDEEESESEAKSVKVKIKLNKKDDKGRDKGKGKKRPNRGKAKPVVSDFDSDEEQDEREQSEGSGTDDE

The term DC50 denotes the concentration giving 50% degradation. A low value points to a more potent degrader. For orientation: Dmax means the largest share of the target that was removed. Lower therefore signals a partial loss of target. As for `O=C1CCC(N2Cc3ccc(N4CCN(Cc5ccc(O[C@@H]6C[C@@H]7CNc8nnc(-c9cc(F)cc(F)c9O)cc8N7C6)cc5)CC4)cc3C2=O)C(=O)N1` (stereo partly drawn) [Example 1, 3-(6-(4-(4-(((6aR,8R)-2-(3,5-difluoro-2-hydroxyphenyl)-5,6,6a,7,8,9-hexa-hydropyrrolo[1′,2′:4,5]pyrazino[2,3-c]pyridazin-8-yl)oxy)benzyl)piperazin-1-yl)-1-oxoisoindolin-2-yl)piperidine-2,6-dione], in test [1], the DC50 is less than 100 nM and the Dmax is greater than 75%. In test [2], this compound yielded a DC50 of less than 100 nM and a Dmax greater than 75%.

In test [1], `Cc1cc(CN2CCN(c3ccc4c(c3)C(=O)N(C3CCC(=O)NC3=O)C4)CC2)ccc1O[C@@H]1C[C@@H]2CNc3nnc(-c4cc(F)cc(F)c4O)cc3N2C1` (stereo partly drawn) [Example 2, 3-(6-(4-(4-(((6aR,8R)-2-(3,5-difluoro-2-hydroxyphenyl)-5,6,6a,7,8,9-hexahydropyrrolo[1′,2′:4,5]pyrazino[2,3-c]pyridazin-8-yl)oxy)-3-methylbenzyl)piperazin-1-yl)-1-oxoisoindolin-2-yl)piperidine-2,6-dione] had a DC50 of less than 100 nM and a Dmax greater than 75%. In test [2], the DC50 was less than 100 nM and the maximal degradation (Dmax) is greater than 75%.

In test [1], `O=C1CCC(N2Cc3ccc(N4CCN(Cc5ccc(O[C@@H]6C[C@@H]7CNc8nnc(-c9cc(F)cc(F)c9O)cc8N7C6)cn5)CC4)cc3C2=O)C(=O)N1` (stereo partly drawn) [Example 3, 3-(6-(4-((5-(((6aR,8R)-2-(3,5-difluoro-2-hydroxyphenyl)-5,6,6a,7,8,9-hexahydropyrrolo[1′,2′:4,5]pyrazino[2,3-c]pyridazin-8-yl)oxy)pyridin-2-yl)methyl)piperazin-1-yl)-1-oxoisoindolin-2-yl)piperidine-2,6-dione] gave a half-maximal degradation concentration (DC50) of less than 100 nM and a Dmax of 50 to 75%. For the same compound, in test [2], the DC50 was less than 100 nM and the Dmax is greater than 75%.

Take `O=C1CCC(N2Cc3ccc(N4CCN(Cc5ccc(O[C@@H]6C[C@@H]7CNc8nnc(-c9cc(F)cc(F)c9O)cc8N7C6)c(F)c5)CC4)cc3C2=O)C(=O)N1` (stereo partly drawn) [Example 4, 3-(6-(4-(4-(((6aR,8R)-2-(3,5-difluoro-2-hydroxyphenyl)-5,6,6a,7,8,9-hexahydropyrrolo[1′,2′:4,5]pyrazino[2,3-c]pyridazin-8-yl)oxy)-3-fluorobenzyl)piperazin-1-yl)-1-oxoisoindolin-2-yl)piperidine-2,6-dione]: in test [1], the half-maximal degradation concentration (DC50) is less than 100 nM and the greatest degradation seen (Dmax) was greater than 75%. In test [2], this compound had a DC50 of less than 100 nM and a Dmax greater than 75%.

Regarding `O=C1CCC(N2Cc3ccc(N4CCN(Cc5ccc(O[C@@H]6C[C@@H]7CNc8nnc(-c9cccc(F)c9O)cc8N7C6)cc5)CC4)cc3C2=O)C(=O)N1` (stereo partly drawn) [Example 5, 3-(6-(4-(4-(((6aR,8R)-2-(3-fluoro-2-hydroxyphenyl)-5,6,6a,7,8,9-hexahydropyrrolo[1′,2′:4,5]pyrazino[2,3-c]pyridazin-8-yl)oxy)benzyl)piperazin-1-yl)-1-oxoisoindolin-2-yl)piperidine-2,6-dione], in test [1], the 50% degradation concentration (DC50) was less than 100 nM and the Dmax was greater than 75%. Besides, in test [2], the half-maximal degradation concentration (DC50) was less than 100 nM and the greatest degradation seen (Dmax) was greater than 75%.

As to `O=C1CCC(N2Cc3ccc(N4CCN(Cc5ccc(O[C@@H]6C[C@@H]7CNc8nnc(-c9cc(F)cc(F)c9O)cc8N7C6)c(Cl)c5)CC4)cc3C2=O)C(=O)N1` (stereo partly drawn) [Example 6, 3-(6-(4-(3-chloro-4-(((6aR,8R)-2-(3,5-difluoro-2-hydroxyphenyl)-5,6,6a,7,8,9-hexahydropyrrolo[1′,2′:4,5]pyrazino[2,3-c]pyridazin-8-yl)oxy)benzyl)piperazin-1-yl)-1-oxoisoindolin-2-yl)piperidine-2,6-dione], in test [1], the DC50 was less than 100 nM and the greatest degradation seen (Dmax) was greater than 75%. In test [2], this compound registered a DC50 of less than 100 nM and a maximal degradation (Dmax) greater than 75%.

In test [1], `Cc1cc(O[C@@H]2C[C@@H]3CNc4nnc(-c5cc(F)cc(F)c5O)cc4N3C2)ccc1CN1CCN(c2ccc3c(c2)C(=O)N(C2CCC(=O)NC2=O)C3)CC1` (stereo partly drawn) [Example 7, 3-(6-(4-(4-(((6aR,8R)-2-(3,5-difluoro-2-hydroxyphenyl)-5,6,6a,7,8,9-hexahydropyrrolo[1′,2′:4,5]pyrazino[2,3-c]pyridazin-8-yl)oxy)-2-methylbenzyl)piperazin-1-yl)-1-oxoisoindolin-2-yl)piperidine-2,6-dione] had a DC50 of less than 100 nM and a Dmax of 50 to 75%. In test [2], the 50% degradation concentration (DC50) was less than 100 nM and the maximal degradation (Dmax) was greater than 75%.

Consider `O=C1CCC(N2Cc3ccc(N4CCN(Cc5ccc(O[C@@H]6C[C@@H]7CNc8nnc(-c9cccc(Cl)c9O)cc8N7C6)cc5)CC4)cc3C2=O)C(=O)N1` (stereo partly drawn) [Example 8, 3-(6-(4-(4-(((6aR,8R)-2-(3-chloro-2-hydroxyphenyl)-5,6,6a,7,8,9-hexahydropyrrolo[1′,2′:4,5]pyrazino[2,3-c]pyridazin-8-yl)oxy)benzyl)piperazin-1-yl)-1-oxoisoindolin-2-yl)piperidine-2,6-dione], for which the DC50 in test [1] and in test [2] was less than 100 nM in each case. Besides, the Dmax in test [1] and in test [2] was greater than 75% in each case.

For `Cc1cc(O[C@@H]2C[C@@H]3CNc4nnc(-c5cc(F)cc(F)c5O)cc4N3C2)c(C)cc1CN1CCN(c2ccc3c(c2)C(=O)N(C2CCC(=O)NC2=O)C3)CC1` (stereo partly drawn) [Example 9, 3-(6-(4-(4-(((6aR,8R)-2-(3,5-difluoro-2-hydroxyphenyl)-5,6,6a,7,8,9-hexahydropyrrolo[1′,2′:4,5]pyrazino[2,3-c]pyridazin-8-yl)oxy)-2,5-dimethylbenzyl)piperazin-1-yl)-1-oxoisoindolin-2-yl)piperidine-2,6-dione], the half-maximal degradation concentration (DC50) in test [1] and in test [2] was less than 100 nM in each case. For the same compound, the Dmax in test [1] is 50 to 75%; in test [2], greater than 75%.

On to `Cc1cc(O[C@@H]2C[C@@H]3CNc4nnc(-c5cccc(Cl)c5O)cc4N3C2)ccc1CN1CCN(c2ccc3c(c2)C(=O)N(C2CCC(=O)NC2=O)C3)CC1` (stereo partly drawn) [Example 10, 3-(6-(4-(4-(((6aR,8R)-2-(3-chloro-2-hydroxyphenyl)-5,6,6a,7,8,9-hexahydropyrrolo[1′,2′:4,5]pyrazino[2,3-c]pyridazin-8-yl)oxy)-2-methylbenzyl)piperazin-1-yl)-1-oxoisoindolin-2-yl)piperidine-2,6-dione], for which the values for the 50% degradation concentration (DC50) in test [1] and in test [2] were greater than 1000 nM and less than 100 nM, respectively. Besides, the results for the Dmax in test [1] and in test [2] were 50 to 75% and greater than 75%, respectively.

On to `Cc1cc(O[C@@H]2C[C@@H]3CNc4nnc(-c5cccc(F)c5O)cc4N3C2)ccc1CN1CCN(c2ccc3c(c2)C(=O)N(C2CCC(=O)NC2=O)C3)CC1` (stereo partly drawn) [Example 11, 3-(6-(4-(4-(((6aR,8R)-2-(3-fluoro-2-hydroxyphenyl)-5,6,6a,7,8,9-hexahydropyrrolo[1′,2′:4,5]pyrazino[2,3-c]pyridazin-8-yl)oxy)-2-methylbenzyl)piperazin-1-yl)-1-oxoisoindolin-2-yl)piperidine-2,6-dione], for which, in test [1], the DC50 is less than 100 nM and the maximal degradation (Dmax) fell in the range of 50 to 75%. In test [2], this compound yielded a DC50 of less than 100 nM and a Dmax greater than 75%.

The values above are taken from patent US20240165244A1 (Prelude Therapeutics Incorporated, priority 2022, published 2024).
